Like-named read-outs stand apart in the source and are kept apart here. Square brackets hold non-standard residues; d marks the D form. Peptide text beside a SMILES is read from it.
Columns and labels:
[1] = test system: Enterobacter cloacae clinical strains; assay type: cell-based; design: Minimum inhibitory concentration: unit: μg/ml; settings: microdilution, Muller Hinton broth-cation adjusted, 0.02% BSA, 0.2% acetic acid
Outline: (§1)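 MIC recorded as the lowest peptide level, within 0.125–128 μg/ml, that left no visible growth after 20–24 h at 37° C. Inoculum was 5.0×10^5 cfu/ml of clinical isolates. Medium was potato dextrose broth for yeasts and Mueller Hinton broth for bacteria, in a broth microdilution format.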

[2] = test system: Proteus mirabilis clinical strains; assay type: cell-based; design: Minimum inhibitory concentration: unit: μg/ml; settings: microdilution, Muller Hinton broth-cation adjusted, 0.02% BSA, 0.2% acetic acid
Outline: as §1

[3] = test system: Staphylococcus aureus clinical strains; assay type: cell-based; design: Minimum inhibitory concentration: unit: μg/ml; settings: microdilution, Muller Hinton broth-cation adjusted, 0.02% BSA, 0.2% acetic acid
Outline: as §1

[4] = test system: Serratia marcescens clinical strains; assay type: cell-based; design: Minimum inhibitory concentration: unit: μg/ml; settings: microdilution, Muller Hinton broth-cation adjusted, 0.02% BSA, 0.2% acetic acid
Outline: as §1

[5] = test system: Streptococcus pneumoniae clinical strains; assay type: cell-based; design: Minimum inhibitory concentration: unit: μg/ml; settings: microdilution, Muller Hinton broth-cation adjusted, 0.02% BSA, 0.2% acetic acid
Outline: as §1

[6] = test system: Escherichia coli clinical strains; assay type: cell-based; settings: microdilution, Muller Hinton broth-cation adjusted, 0.02% BSA, 0.2% acetic acid
Outline: as §1

[7] = test system: Pseudomonas aeruginosa clinical strains; assay type: cell-based; settings: microdilution, Muller Hinton broth-cation adjusted, 0.02% BSA, 0.2% acetic acid
Outline: as §1

[8] = test system: Klebsiella pneumoniae clinical strains; assay type: cell-based; settings: microdilution, Muller Hinton broth-cation adjusted, 0.02% BSA, 0.2% acetic acid
Outline: as §1

[9] = test system: C. glabrata clinical strains; assay: MIC, clinical yeast strains; assay type: cell-based, Candida glabrata; design: unit: µg/ml
Outline: as §1

[10] = test system: Candida albicans clinical strains; assay: MIC, clinical yeast strains; assay type: cell-based; design: unit: μg/ml
Outline: as §1

[11] = test system: C. quillermondiae clinical strains; assay: MIC, clinical yeast strains; assay type: cell-based, Candida quillermondiae; design: unit: μg/ml; settings: C. quillermondiae clinical yeast strain 1
Outline: as §1

[12] = test system: C. parapsilosis clinical strains; assay: MIC, clinical yeast strains; assay type: cell-based, Candida parapsilosis; design: unit: µg/ml
Outline: as §1

SMILES: CC(C)C[C@@H](NC(=O)[C@H](N)CCCCN)C(=O)N[C@H](CCCCN)C(=O)N[C@H](Cc1c[nH]c2ccccc12)C(=O)N[C@H](Cc1ccccc1)C(=O)N[C@H](Cc1c[nH]c2ccccc12)C(=O)N[C@H](CC(C)C)C(=O)N[C@H](Cc1ccccc1)C(=O)N[C@H](CCCCN)C(=O)N[C@H](CCCCN)C(=O)N[C@H](CCCNC(=N)N)C(=O)O [Chain311D] (H-[dK][dL][dK][dW][dF][dW][dL][dF][dK][dK][dR]-OH)
- Minimum inhibitory concentration ([1]; Enterobacter cloacae clinical strain 1): 4
- Minimum inhibitory concentration ([1]; Enterobacter cloacae clinical strain 2): 4
- Minimum inhibitory concentration ([1]; Enterobacter cloacae clinical strain 3): 4
- Minimum inhibitory concentration ([1]; Enterobacter cloacae clinical strain 4): 4
- Minimum inhibitory concentration ([1]; Enterobacter cloacae clinical strain 5): 2
- Minimum inhibitory concentration ([2]; Proteus mirabilis clinical strain 1): >128
- Minimum inhibitory concentration ([2]; Proteus mirabilis clinical strain 2): 128
- Minimum inhibitory concentration ([2]; Proteus mirabilis clinical strain 3): 128
- Minimum inhibitory concentration ([2]; Proteus mirabilis clinical strain 4): >128
- Minimum inhibitory concentration ([2]; Proteus mirabilis clinical strain 5): >128
- Minimum inhibitory concentration ([3]; Staphylococcus aureus clinical strain 1): 1
- Minimum inhibitory concentration ([3]; Staphylococcus aureus clinical strain 2): 1
- Minimum inhibitory concentration ([3]; Staphylococcus aureus clinical strain 3): 1
- Minimum inhibitory concentration ([3]; Staphylococcus aureus clinical strain 4): 1
- Minimum inhibitory concentration ([3]; Staphylococcus aureus clinical strain 5): 1
- Minimum inhibitory concentration ([4]; Serratia marcescens clinical strain 1): >128
- Minimum inhibitory concentration ([4]; Serratia marcescens clinical strain 2): >128
- Minimum inhibitory concentration ([4]; Serratia marcescens clinical strain 3): >128
- Minimum inhibitory concentration ([4]; Serratia marcescens clinical strain 4): >128
- Minimum inhibitory concentration ([4]; Serratia marcescens clinical strain 5): >128
- Minimum inhibitory concentration ([5]; Streptococcus pneumoniae clinical strain 1): 16
- Minimum inhibitory concentration ([5]; Streptococcus pneumoniae clinical strain 2): 8
- Minimum inhibitory concentration ([5]; Streptococcus pneumoniae clinical strain 3): 16
- Minimum inhibitory concentration ([5]; Streptococcus pneumoniae clinical strain 4): 4
- Minimum inhibitory concentration ([5]; Streptococcus pneumoniae clinical strain 5): 8
- Minimum inhibitory concentration ([6]; Escherichia coli clinical strain 1): 2
- Minimum inhibitory concentration ([6]; Escherichia coli clinical strain 2): 2
- Minimum inhibitory concentration ([6]; Escherichia coli clinical strain 3): 1
- Minimum inhibitory concentration ([6]; Escherichia coli clinical strain 4): 0.5
- Minimum inhibitory concentration ([6]; Escherichia coli clinical strain 5): 1
- Minimum inhibitory concentration ([7]; Pseudomonas aeruginosa clinical strain 1): 16
- Minimum inhibitory concentration ([7]; Pseudomonas aeruginosa clinical strain 2): 8
- Minimum inhibitory concentration ([7]; Pseudomonas aeruginosa clinical strain 3): 16
- Minimum inhibitory concentration ([7]; Pseudomonas aeruginosa clinical strain 4): 8
- Minimum inhibitory concentration ([7]; Pseudomonas aeruginosa clinical strain 5): 4
- Minimum inhibitory concentration ([8]; Klebsiella pneumoniae clinical strain 1): 8
- Minimum inhibitory concentration ([8]; Klebsiella pneumoniae clinical strain 2): 8
- Minimum inhibitory concentration ([8]; Klebsiella pneumoniae clinical strain 3): 4
- Minimum inhibitory concentration ([8]; Klebsiella pneumoniae clinical strain 4): 8
- Minimum inhibitory concentration ([8]; Klebsiella pneumoniae clinical strain 5): 4
- Minimum inhibitory concentration ([9]; C. glabrata clinical yeast strain 1): 16
- Minimum inhibitory concentration ([9]; C. glabrata clinical yeast strain 2): 16
- Minimum inhibitory concentration ([9]; C. glabrata clinical yeast strain 3): 8
- Minimum inhibitory concentration ([9]; C. glabrata clinical yeast strain 4): 64
- Minimum inhibitory concentration ([10]; Candida albicans clinical yeast strain 1): 8
- Minimum inhibitory concentration ([10]; Candida albicans clinical yeast strain 2): 8
- Minimum inhibitory concentration ([10]; Candida albicans clinical yeast strain 3): 8
- Minimum inhibitory concentration ([10]; Candida albicans clinical yeast strain 4): 16
- Minimum inhibitory concentration ([10]; Candida albicans clinical yeast strain 5): 16
- Minimum inhibitory concentration [11]: 4
- Minimum inhibitory concentration ([12]; C. parapsilosis clinical yeast strain 1): 16
- Minimum inhibitory concentration ([12]; C. parapsilosis clinical yeast strain 2): 8
- Minimum inhibitory concentration ([12]; C. parapsilosis clinical yeast strain 3): 8
- Minimum inhibitory concentration ([12]; C. parapsilosis clinical yeast strain 4): 8

— US10457709B2, “Antimicrobial peptides, their variants and uses” (priority 2015, dated 2019)
